Experimental data published in patent publication US20210161915A1, “GABA-A ANTAGONISTS FOR TREATING SUBSTANCE […]” (ASARINA PHARMA APS, priority 2018, published 2021).

Assays:
female Wistar rats = experiment: Resident/intruder (R/I) test of estrus cycle-dependent tolerance/withdrawal symptoms; assay type: in vivo, rat; settings: 1.5 mg/kg s.c. daily
Experimental: Experimental set-up: Experiments were carried out in female cycling rats. Rats have steroid variations related to ovulation similar to humans. […] The symptoms are related to the excitability changes in the brain that precedes withdrawal symptoms. Symptoms like migraine attacks and epileptic seizure(s) will arrive after a period of tolerance (Reddy & Rogawski 2009; Slawecki et al 2000, Welch K M. 2005). Symptoms in rats were investigated using a resident/intruder (R/I) test with behavioral analysis at the diestrus and the estrus phases of the estrus cycle (FIG. 3). The symptoms referred to in this Example are behavioral symptoms of withdrawal.
The frequency of behavioral symptom expression at diestrus and estrus during treatment were compared to the same behavior expression prior to treatment. The intruder rats were ovariectomized animals of the same age and size as the residents.
Animals: In total, 42 female Wistar rats (Taconics, Lille Skensved, Denmark) were used. At arrival the animals were approximately 9 weeks old and weighed 185-209 g. For identification, the rats were marked on their tails with permanent ink (PorciMark™). The animals were housed in triads at the animal facility where all experiments took place (Umea University, Umea, Sweden). A reversed light/dark cycle was used (12 h/12 h light/dark; lights off at 04:00). Food (standard chow) and water was available ad libitum. The rats were handled daily for two weeks prior to the start of testing. Nine rats were randomly selected as intruder rats and were ovariectomized. The remaining intact rats were tested for estrus cycle-dependent symptomatic behavior. The study protocol was approved by the Regional Ethics Committee of Umea, Sweden. All animal handling and experiments were performed according to Swedish legislation.
Ovariectomy of the intruder rats: Ovariectomy of the intruder rats was carried out by ligation of uterine tubes and removal of ovaries under anesthesia with 2.3% Isoflurane (Baxter Medical AB, Kista, Sweden) in oxygen (O2 flow rate 0.32 L/min). The surgical suture techniques included the use of surgical glue (Vetbond Tissue Adhesive No 1469 3M) in addition to sutures. Pain relief (Rimadyl Vet, 0.25 mg/100 g) was given daily for one week post-surgery.
Determination of estrus cycle phase: Estrus cycle phase (proestrus, estrus, metestrus and diestrus) of the rats was determined by microscope examination of vaginal smears. The smears were collected daily between 08:00 and 10:00, using a glass pipette with 50-70 μL normal saline (NaCl 0.9%), and stained with 0.2% toluidine blue. However, on the day of R/I test, the vaginal smear of a tested animal was collected immediately after the encounter. In addition, during the 3beta-hydroxy-5alpha-pregnan-20-one treatment, the smears were collected directly in the morning before injections to confirm expected estrus cycle phase. Diestrus (including metestrus) is characterized by the presence of leucocytes in smears. Both nucleated epithelial cells and cornified epithelial cells are present at diestrus but more abundantly at metestrus than at late diestrus. Estrus (including proestrus) is characterized by thick smears free from leucocytes but with abundant presence of nucleated epithelial cells (predominant in proestrus) and cornified epithelial cell (predominant at estrus). Further details are provided in Hubscher et al., 2005. […]

[1] = biological target: T1, human alpha4,beta,delta GABAA receptor subtype (Homo sapiens, UniProt P28472+P48169); experiment: Patch-clamp (Dynaflow system) current response in HEK-293 cells transfected with alpha4,beta3,delta GABAA receptor; assay type: cell-based
T1 construct: expressed in transfected cells; host or cells: HEK-293
Experimental: (§1) In these tests the protocol was optimized to be similar to the physiological conditions in the synaptic cleft.
(§2) Cell culture: HEK-293 cells, permanently transfected with the human alpha1,beta,gamma and alpha4,beta,delta GABAA receptor subtypes, were seeded at a density of 3×10^4/25 cm^2 in a culture flask. The transfected cells were used for patch-clamp experiments 3 days after seeding. When using the cells for patch-clamp experiments the cells were washed twice with oxygen-bubbled extra cellular (EC) solution (see below). About 5 mL EC was then added and the cells were kept in the incubator for about 15 minutes. After 15 minutes the cells came loose from the bottom of the flask and were separated by carefully sucking a couple of times with a Pasteur pipette.
(§3) Dynaflow™ system with Resolve chip was used for patch-clamp experiments: The electrophysiological recordings from HEK-293 cells were performed under voltage-clamp conditions using patch-clamp technique and the Dynaflow™ system (Dynaflow Pro II Platform Zeiss Axiovert 25; Cellectricon AB, Sweden) with Resolve chips as application system.
(§4) Patch pipettes were pulled from borosilicate glass and polished to a resistance 2-5 MΩ when filled with suitable intracellular solution (IC) (pH was adjusted to 7.2) and immersed in bath solution (extracellular, EC) (pH is adjusted to 7.4).
(§5) The recordings were made using an Axopatch 200B amplifier, a Digidata 1322A (Axon instruments, Foster city, USA). Data were analysed using the pCLAMP software sampled at 10 kHz, filtered at 2-10 kHz and analyzed with Clampfit (versions 9.0, both from Axon instruments, Foster city, USA). No higher series resistance than 20 MΩ between pipette and cell membrane was accepted. No series resistance compensation was used. The stability of series resistance was monitored repeatedly from the time course of capacitative transients during the experiments. The measured liquid-junction potential between EC and IC was subtracted in all data presented. All experiments were performed at room temperature (21-23° C.).
(§6) All steroids were dissolved to the concentration of 6 mM in DMSO. […] End solutions were the solutions added into the wells of the chip.
(§7) Electrophysiology: After compensating for the liquid junction potential a steady holding potential of −17 mV was used in all experiments. […] By using the holding potential of −17 mV and the intracellular solution with low chloride ion concentration the chloride ions flux into the cell when the receptors were activated.
The Dynaflow system allowed application of solutions for as short as 40 ms up to minutes in time. […] There was no difference in response between the second and the third GABA application. Therefore, the first GABA application was always repeated twice and the second response was used in the analysis.
Washout: GABA is quite soluble in water and easy to washout from the receptor. […] Steroids on the other hand were difficult to dissolve in water and also difficult to washout from the receptor. In the experiments, THDOC and 3alpha-OH-adiol were used as the positive GABAA receptor modulating steroids. With 2 minutes washout time, 200 nM THDOC and 3alpha-OH-adiol was completely washed out as shown by neither an accumulative nor a desensitization effect.
(§8) Different incubation times were studied to achieve the optimal time for attaining stable results and minimize the washout time.

[2] = intended doses; cited from earlier work
[3] = biological target: T2, human alpha1,beta2,gamma2 Long GABAA receptor subtype (Homo sapiens, UniProt P14867+P47870); experiment: Patch-clamp (Dynaflow system) current response in HEK-293 cells transfected with alpha1,beta2,gamma2 Long GABAA receptor; assay type: cell-based
T2 construct: expressed in transfected cells; host or cells: HEK-293
Experimental: as §1, §2, §3, §4, §5, §6, §7
The Dynaflow system allowed application of solutions for as short as 40 ms up to minutes in time.
In the experiments, THDOC and 3alpha-OH-adiol were used as the positive GABAA receptor modulating steroids.
as §8
Study design: Studies were conducted on current response mediated by chloride ion flux through the GABAA receptor. […] The same patch-clamp technique was used as described above (Example 1) using the Dynaflow™ application system. THDOC was used as positive GABAA receptor modulating steroid as it has shorter washout time compared to allopregnanolone but works with the same mechanisms on the same GABAA receptor binding site as allopregnanolone.
HEK-293 cells, permanently transfected with cDNA expressing the human alpha1,beta2,gamma2 Long GABAA receptor subtype. The tissue culture and the handling of the cells were as described in Example 1. In the patch-clamp experiments the transfected cells were used minimum two passages after defrosting and 3 days after seeding. The cells were seeded for maximal 25 times.

T2 sequence (P14867 28-456): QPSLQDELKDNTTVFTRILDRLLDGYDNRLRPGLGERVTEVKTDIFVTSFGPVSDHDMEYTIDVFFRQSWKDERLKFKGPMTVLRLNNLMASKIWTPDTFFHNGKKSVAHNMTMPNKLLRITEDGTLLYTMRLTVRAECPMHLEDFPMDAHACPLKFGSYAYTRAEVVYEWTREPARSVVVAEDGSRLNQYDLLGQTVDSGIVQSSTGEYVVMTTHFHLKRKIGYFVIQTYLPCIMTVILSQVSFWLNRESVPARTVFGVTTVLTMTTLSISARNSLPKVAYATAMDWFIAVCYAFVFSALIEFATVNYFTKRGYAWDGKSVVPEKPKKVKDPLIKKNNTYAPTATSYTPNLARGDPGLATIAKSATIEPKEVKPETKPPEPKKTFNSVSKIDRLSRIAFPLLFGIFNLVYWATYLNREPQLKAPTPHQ
T2 sequence (P47870 25-512 limits assumed): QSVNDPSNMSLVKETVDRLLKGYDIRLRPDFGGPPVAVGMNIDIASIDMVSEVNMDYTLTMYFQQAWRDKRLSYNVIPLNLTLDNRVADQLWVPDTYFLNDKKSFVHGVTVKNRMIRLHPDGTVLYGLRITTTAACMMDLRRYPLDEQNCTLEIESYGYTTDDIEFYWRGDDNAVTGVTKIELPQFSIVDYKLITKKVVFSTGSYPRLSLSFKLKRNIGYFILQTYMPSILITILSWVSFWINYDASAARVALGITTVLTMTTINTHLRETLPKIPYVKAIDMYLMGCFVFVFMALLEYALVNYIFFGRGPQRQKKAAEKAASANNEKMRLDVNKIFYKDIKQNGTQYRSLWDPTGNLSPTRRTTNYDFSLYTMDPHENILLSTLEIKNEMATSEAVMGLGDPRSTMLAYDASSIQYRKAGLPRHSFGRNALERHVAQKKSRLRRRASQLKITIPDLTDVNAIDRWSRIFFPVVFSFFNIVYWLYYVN
T2 sequence (P18507 40-475 partner): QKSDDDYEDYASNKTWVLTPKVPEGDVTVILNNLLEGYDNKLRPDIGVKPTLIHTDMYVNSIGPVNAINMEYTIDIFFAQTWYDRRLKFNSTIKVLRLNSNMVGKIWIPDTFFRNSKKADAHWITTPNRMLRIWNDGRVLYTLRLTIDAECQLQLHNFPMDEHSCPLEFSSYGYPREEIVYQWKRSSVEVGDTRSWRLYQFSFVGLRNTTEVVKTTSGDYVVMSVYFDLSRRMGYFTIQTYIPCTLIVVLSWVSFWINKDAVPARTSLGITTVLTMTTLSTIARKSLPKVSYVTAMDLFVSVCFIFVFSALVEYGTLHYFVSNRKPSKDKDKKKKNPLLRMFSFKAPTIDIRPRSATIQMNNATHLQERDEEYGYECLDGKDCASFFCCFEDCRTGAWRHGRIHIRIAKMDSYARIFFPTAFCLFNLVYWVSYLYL
T1 sequence (P48169 36-554): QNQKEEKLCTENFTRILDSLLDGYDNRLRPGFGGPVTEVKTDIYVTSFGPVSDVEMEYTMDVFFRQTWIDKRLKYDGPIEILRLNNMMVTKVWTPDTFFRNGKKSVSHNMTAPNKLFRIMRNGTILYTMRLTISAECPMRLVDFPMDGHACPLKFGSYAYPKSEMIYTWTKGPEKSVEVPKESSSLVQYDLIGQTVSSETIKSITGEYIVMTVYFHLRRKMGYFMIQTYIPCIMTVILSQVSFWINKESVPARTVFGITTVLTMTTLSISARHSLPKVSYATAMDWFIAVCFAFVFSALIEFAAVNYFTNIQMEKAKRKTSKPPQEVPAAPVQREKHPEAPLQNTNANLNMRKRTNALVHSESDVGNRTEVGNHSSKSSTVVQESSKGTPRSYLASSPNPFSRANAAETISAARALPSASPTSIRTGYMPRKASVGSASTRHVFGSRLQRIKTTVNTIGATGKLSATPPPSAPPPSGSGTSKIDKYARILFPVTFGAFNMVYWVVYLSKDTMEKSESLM
T1 sequence (P28472 26-473): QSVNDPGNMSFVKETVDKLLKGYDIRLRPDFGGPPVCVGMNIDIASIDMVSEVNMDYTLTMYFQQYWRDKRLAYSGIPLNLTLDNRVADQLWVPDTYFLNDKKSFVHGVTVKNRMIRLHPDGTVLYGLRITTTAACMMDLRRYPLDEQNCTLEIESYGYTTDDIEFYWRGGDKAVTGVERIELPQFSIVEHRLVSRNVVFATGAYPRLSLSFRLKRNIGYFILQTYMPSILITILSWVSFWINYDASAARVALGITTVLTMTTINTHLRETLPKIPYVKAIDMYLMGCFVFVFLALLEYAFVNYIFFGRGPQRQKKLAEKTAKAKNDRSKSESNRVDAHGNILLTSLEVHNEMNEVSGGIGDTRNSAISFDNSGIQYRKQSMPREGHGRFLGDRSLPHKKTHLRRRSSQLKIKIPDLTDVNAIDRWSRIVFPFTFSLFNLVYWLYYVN
T1 sequence (O14764 17-452 partner limits assumed): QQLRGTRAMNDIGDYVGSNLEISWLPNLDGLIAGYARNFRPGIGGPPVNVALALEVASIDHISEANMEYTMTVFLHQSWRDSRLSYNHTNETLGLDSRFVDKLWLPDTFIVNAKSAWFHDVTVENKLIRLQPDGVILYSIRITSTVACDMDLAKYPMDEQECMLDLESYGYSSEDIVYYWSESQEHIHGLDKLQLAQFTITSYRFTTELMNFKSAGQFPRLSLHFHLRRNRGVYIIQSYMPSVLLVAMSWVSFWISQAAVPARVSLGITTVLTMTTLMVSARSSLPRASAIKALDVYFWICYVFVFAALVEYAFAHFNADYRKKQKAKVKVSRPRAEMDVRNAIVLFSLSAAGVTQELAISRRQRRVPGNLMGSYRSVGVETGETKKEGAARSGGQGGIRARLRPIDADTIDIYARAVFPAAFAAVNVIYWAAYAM

CC(=O)[C@H]1CC[C@H]2[C@@H]3CC[C@H]4C[C@@H](O)CC[C@]4(C)[C@H]3CC[C@]12C [UC1010, 3beta-hydroxy-5alpha-pregnan-20-one]
Symptoms at diestrus during treatment in comparison to mean diestrus without treatment (female Wistar rats; 14 rats with symptoms): significantly decreased | Relative effect of treatment on symptomatic behavior at diestrus (female Wistar rats; baseline diestrus set to 100%, baseline estrus set to 0%, n=14): −89% | Estrus cycle duration or vaginal smear appearance during treatment (female Wistar rats; data not shown): did not change | Symptomatic behaviors at both diestrus phases when treated compared to diestrus at baseline (female Wistar rats; nine rats with symptoms in both cycles): less frequent | Effect size, Cohen's d (female Wistar rats; symptoms at diestrus): 1.67 | The effect of 1 μM UC1010 on 0.6 μM Androstanediol + 3 μM GABA, Mean ± SEM % [1]: −18 ± 2.0% | The effect of 1 μM UC1010 on 0.8 μM Androstanediol + 3 μM GABA, Mean ± SEM % [1]: −22 ± 2.6% | Current response of compound by itself ([1]; 1 μM, no GABA, no THDOC): −0.4±0.3 pA | The effect of 1 μM UC1010 on 0.1 μM THDOC alone baseline, Mean ± SEM % ([1]; baseline shift without GABA): −43 ± 3.5% | The effect of 1 μM UC1010 on 3 μM GABA response, Mean ± SEM % ([1]; control, GABA alone): −6.7 ± 3.3% | The effect of 1 μM UC1010 on 0.1 μM THDOC + 3 μM GABA, Mean ± SEM % ([1]; steady state): −26 ± 2.4% | Safety in clinical studies [2]: shown safe | Imax/Emax Mean ± SEM %, antagonism of THDOC enhanced effect ([3]; 1 μM UC1010 + 30 μM GABA + 200 nM THDOC): −22.3±5.3% | Imax/Emax Mean ± SEM %, effect on GABA response ([3]; 1 μM UC1010 + 30 μM GABA, compared to GABA alone): +10.3 ± 7.8% | Emax ([3]; HEK293, 0.1-1 μM UC1010 + 30 μM GABA + 200 nM THDOC, concentration-dependent experiment, read-out: Imax/Emax, max antagonism of THDOC effect): -21 ± 4.6% | Emax at 1 µM ([3]; HEK293, read-out: Imax/Emax Mean ± SEM %, effect on GABA response, 1 μM UC1010 + 30 μM GABA, compared to GABA alone): 10.3% | The effect of 1 μM UC1010 on 8 μM Androstanediol + 30 μM GABA, Mean ± SEM % ([3]; steady state (phasic effect)): −30 ± 1.7% | The effect of 1 μM UC1010 on 8 μM Androstanediol, baseline shift, Mean ± SEM % ([3]; tonic effect): −33 ± 7.6%
